This is an account of results in patent publication US5922557A, “System for stably expressing a high-affinity camp phosphodiesterase and use thereof” (Merck & Co., Inc., priority 1998, dated 1999).

Structures are written as SMILES. Entries after “also recorded” stand apart in the source; their conditions may differ. Like-named read-outs stand apart in the source and are kept apart here.

In series [1] the test system is catalytic portion of PDE IV. The conditions noted are these: UCR1 and UCR2 deleted; cited from earlier work.
In series [2] the test system is PDE IVh6.1. The conditions noted are these: PDE IVh6.1 in S. cerevisiae or COS-1 cells; cited from earlier work.
The test system of series [3] is cAMP PDE. Particulars: membraneous and cytosolic fractions, rat brain; cited from earlier work.
The test system of series [4] is patients. Particulars: clinic; cited from earlier work.
The subject of series [5] is high-affinity rolipram binding site, rat forebrain membranes. Particulars: cited from earlier work.
The test system of series [6] is FLAG PDE IVAmet330.
Description: (§1) CHO-K1 cells were lysed by sonication for 10 secs at a power setting of 50% (BRAUNSONIC Model 2000) in an ice cold solution containing 50 mM Tris, pH 7.5; 1 mM EDTA; and 200 μM mercaptoethanol. The soluble and particulate fractions of the cell were obtained by centrifuging the sonicate for 90 min at 100,000×g at 4° C. PDE activity was measured in a solution containing 50 mM Tris, pH 7.5; 10 mM MgCl2 ; 1 mM EDTA; and 100 nM (or indicated) 3H-cAMP (100 ml final volume) in the presence of varying concentrations of inhibitor. The reaction mixture containing enzyme was incubated for 10 min at 30° C. in 96-well View Plates (PACKARD), and terminated by the addition of 50 μl Phosphodiesterase Scintillation Proximity Assay (SPA) Beads ([sequence]) containing 18 mM ZnSO4. The amount of 3H-cAMP hydrolysis was determined by counting the plates in a WALLAC 1450 μBeta LSC counter.
(§2) CHO-K1 cells stably expressing epitope FLAG PDE IV constructs were lysed by sonication for 10 secs at a power setting of 50% (Braunsonic Model 2000) in an ice cold solution containing 50 mM Tris, pH 7.5; 1 mM EDTA; protease inhibitor cocktail (Boehringer, Montreal, QUE). The soluble and particulate fractions of the cell were obtained by centrifuging the sonicate for 90 min at 100,000×g at 40° C.
For series [7], the target named is T1, FLAG PDE IVAmet330 (Homo sapiens, UniProt P27815, M723I). In kind it is binding. Details: made in house. The conditions noted are these: 0.2 to 100 nM [^3 H](R)-rolipram.
Target sequence in this assay (P27815 332-886 M723I): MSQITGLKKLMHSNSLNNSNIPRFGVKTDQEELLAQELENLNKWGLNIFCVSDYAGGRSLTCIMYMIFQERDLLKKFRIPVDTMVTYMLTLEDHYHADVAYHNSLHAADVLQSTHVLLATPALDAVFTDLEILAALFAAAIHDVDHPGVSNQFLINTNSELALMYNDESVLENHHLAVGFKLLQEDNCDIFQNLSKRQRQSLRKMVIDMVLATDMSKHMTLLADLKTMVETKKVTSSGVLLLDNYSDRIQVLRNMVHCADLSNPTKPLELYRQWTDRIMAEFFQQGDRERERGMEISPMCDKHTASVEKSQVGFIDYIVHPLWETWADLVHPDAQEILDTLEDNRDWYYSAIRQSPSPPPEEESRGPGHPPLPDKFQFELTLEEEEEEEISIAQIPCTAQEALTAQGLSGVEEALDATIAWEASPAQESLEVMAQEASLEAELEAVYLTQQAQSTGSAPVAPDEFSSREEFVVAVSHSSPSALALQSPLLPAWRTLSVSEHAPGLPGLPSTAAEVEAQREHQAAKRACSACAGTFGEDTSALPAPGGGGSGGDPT
Description: CHO-K1 cells stably expressing epitope FLAG PDE IV constructs were lysed by sonication for 10 secs at a power setting of 50% (Braunsonic Model 2000) in an ice cold solution containing 50 mM Tris, pH 7.5; 1 mM EDTA; protease inhibitor cocktail (Boehringer, Montreal, QUE). The soluble and particulate fractions of the cell were obtained by centrifuging the sonicate for 90 min at 100,000×g at 40° C. […] The affinity matrix was washed with column buffer until all unbound protein was eluted from the column as determined with a UV-2 flow cell. Bound material was eluted with column buffer containing 0.5 mg/ml. FLAG peptide at a flow rate of 2 ml/min.
(§3) The filters were quickly washed with an ice-cold solution of 50 mM Tris; pH 7.5. […] Non-specific binding amounted to less than 5% of the total measured binding activity.
For series [8], the system named is full-length PDE Iva / HPDE IV. The conditions noted are these: cited from earlier work.
For series [9], the system named is constitutive phosphodiesterase of control cells (VH2). In words: Constitutive phosphodiesterase activity in control cells (VH2). The format is biochemical. The conditions noted are these: control cells (VH2) in selection media.
Description: as §1
For series [10], the target named is T2, FLAG PDE IVA (Homo sapiens, UniProt P27815, M723I). The conditions noted are these: 150 mM KCl with 3 mg/ml HSA vs HSA alone. Here is the method:
PDE activity was measured in a solution containing 50 mM Tris, pH 7.5; 10 mM MgCl2; 1 mM EDTA; and 100 nM (or indicated) 3H-cAMP ([…] final volume) in the presence of varying concentrations of inhibitor. The reaction mixture containing enzyme was incubated for 10 min at 30° C. in 96-well View Plates (PACKARD), and terminated by the addition of 50 μl Phosphodiesterase Scintillation Proximity Assay (SPA) Beads ([…]) containing 18 mM ZnSO4. The amount of 3H-cAMP hydrolysis was determined by counting the plates in a WALLAC 1450 μBeta LSC counter.

For series [11], the system named is PKA in CHO-K1 cells stably expressing PDE IVa. In words: Whole-cell cAMP dependent protein kinase (PKA) activity ratio. The format is cell-based. Particulars: with 1 μM PGI2, read-out: apparent EC50 to activate PKA. Here is the method:
PKA activity ratios were determined as the amount of ^32 P transferred to histone F2B in the presence and absence of cAMP as described in Materials and Methods. Data points represent the fractional PKA activation by incubating cells with the indicated concentrations of inhibitor and […]. Experiments were performed in triplicate. n=3 experiments±SD.
CHO-K1 cells were grown and resuspended as described above except that the Hank's buffer was replaced by a solution containing 0.25M sucrose; 10 mM Tris, pH 7.5; and 0.5 mM EDTA. The cells were preincubated and incubated with 1 μM PGI2 and the indicated compounds at room temperature as described above. The incubations were terminated by the addition of 0.05% Triton X-100 (final) and incubating the cells for 5 min on ice. […] This mixture (final volume 220 μl) was incubated in a waterbath for 30 min at 35° C. and terminated by adding 5 ml of ice cold 5% TCA. The precipatated protein was applied to a Whatman GF/B filter under vacuum and the filter was subsequently washed with 3×5 ml ice cold TCA solution. The amount of -32P incorporation was measured by placing the filters in Aquasol and counting in a BECKMAN LSC 5000. Basal cAMP independent protein kinase activity was determined by the inclusion of 1 μM Protein Kinase A Peptide Inhibitor (19) in the reaction mixture. Maximal cAMP protein kinase activity was determined in the presence of 10 μM cAMP. All determinations were performed in triplicate and activity ratios were calculated as the [(kinase activity in the presence of PDE inhibitor minus cAMP independent kinase activity)/(maximal cAMP kinase activity minus cAMP independent kinase activity)]×100.

Series [12] deals with T1, FLAG PDE IVAmet330. The conditions noted are these: KCl and/or HSA.
Target sequence in this assay (P27815 332-886 M723I limits assumed): as the sequence (P27815 332-886 M723I) above
Description: as §1, §2
Series [13] concerns CHO-K1 cells stably expressing rhPDE IVa. The series can be described thus: cells. The format is cell-based. As to the method: Levels of cAMP were measured in CHO-K1 cells stably expressing PDE IVa enzyme as outlined in Materials and Methods.
CHO-K1 cells were plated at a density of 10^6 cells/175 cm^2 containing complete media with 500 μg/ml hygromycin. The flasks were maintained in an incubator at 37° C. with 5.0% CO2 for 72 hr. The media was changed and the cells were allowed to grow overnight. The cells were washed and dissociated from the plate with PBS containing 0.5 mM EDTA. Cellular cAMP content was measured by centrifuging the cell suspension at 150 g×10 min and resuspending the cells in a Hanks buffered salt solution at a density of 0.2×10^6 cells/ml. The cells were preincubated at room temperature for 15 min and then incubated with 10 μM prostaglandin I2 (PGI2) and the indicated compound for an additional 10 min. Basal cAMP levels were determined by incubating the cells in 0.1% DMSO. The incubations were terminated by the addition of HCl (0.1N final) and the cells measured for cAMP.
Determinations of whole-cell cAMP content were performed by incubating 100 μl reconstituted rabbit anti-succinyl cAMP serum with 100 μl of the whole-cell reaction or known cAMP standard and 30 pmol of 125I-cAMP TME in a […]™ well (300 μl final volume) at room temperature for 18 h. Total cpm (Bo) was determined in the absence of sample or cAMP standard. The reaction mixture was then aspirated out of the well, and individual wells were counted in a BECKMAN LS 6000SC with the window open from 10-999 for 1 min. The data were expressed as %B/Bo=[(standard or sample cpm--non-specific cpm)/(Bo cpm-non-specific cpm)]×100. Non-specific cpm were determined by incubating only the 125I-cAMP TME with assay buffer (50 mM acetate; pH 5.8) in the ScintiStrip™ well. All determinations were performed in triplicate.

The target in series [14] is T3, recombinant full-length human PDE IVa (rhPDEIVa) (Homo sapiens, UniProt P27815, M723I).
T3 construct: a cDNA insert encoding for a full-length human PDE IVa enzyme; made in house; host or cells: CHO-K1 cells, stably transfected (also expressing the prostanoid IP receptor); 100,000xg supernatant of the sonicate
T3 sequence (P27815 whole entry M723I): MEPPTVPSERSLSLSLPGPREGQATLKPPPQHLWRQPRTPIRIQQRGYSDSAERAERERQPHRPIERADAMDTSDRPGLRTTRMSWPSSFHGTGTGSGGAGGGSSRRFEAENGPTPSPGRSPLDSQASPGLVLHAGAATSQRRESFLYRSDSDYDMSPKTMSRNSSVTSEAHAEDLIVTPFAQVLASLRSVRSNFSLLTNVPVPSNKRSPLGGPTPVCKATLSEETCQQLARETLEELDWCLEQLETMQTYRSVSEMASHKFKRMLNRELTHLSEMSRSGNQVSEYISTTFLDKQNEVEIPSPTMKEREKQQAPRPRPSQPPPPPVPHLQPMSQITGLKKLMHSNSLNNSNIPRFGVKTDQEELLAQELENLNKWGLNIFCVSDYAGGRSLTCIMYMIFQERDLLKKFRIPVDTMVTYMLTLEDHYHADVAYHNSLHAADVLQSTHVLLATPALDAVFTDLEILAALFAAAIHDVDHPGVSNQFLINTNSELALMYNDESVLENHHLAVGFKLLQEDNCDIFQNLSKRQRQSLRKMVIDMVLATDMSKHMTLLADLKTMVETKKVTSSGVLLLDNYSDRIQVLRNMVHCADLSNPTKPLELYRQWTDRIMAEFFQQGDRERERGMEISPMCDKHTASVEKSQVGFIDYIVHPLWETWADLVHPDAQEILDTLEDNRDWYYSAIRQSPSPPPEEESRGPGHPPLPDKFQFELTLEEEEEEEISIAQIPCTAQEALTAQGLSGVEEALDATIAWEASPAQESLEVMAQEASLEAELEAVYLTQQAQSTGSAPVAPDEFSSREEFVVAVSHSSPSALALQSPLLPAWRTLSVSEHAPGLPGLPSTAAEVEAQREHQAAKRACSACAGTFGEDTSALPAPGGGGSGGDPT
The series can be described thus: Phosphodiesterase Scintillation Proximity Assay, inhibition of soluble rhPDE IVa (100,000×g supernatant of transfected CHO-K1 cells). In kind it is biochemical. Here is the method: Inhibition of soluble rhPDEIVa by specific inhibitors was examined at 100 nM substrate. Enzyme activity was determined as described in Materials and Methods using the Amersham SPA beads that specifically bind 5'AMP.
Inhibition of soluble rhPDEIVa by specific inhibitors was examined in the presence of 5 mM to 100 mM MgCl2. Enzyme activity was determined as described in Materials and Methods using the Amersham SPA beads that specifically bind 5'AMP in the presence of […] cAMP substrate.

Series [15] has as its system catalytic portion of PDE IV. The conditions noted are these: UCR1 and UCR2 deleted; cited from earlier work. This is another data set of the same source.
The subject of series [16] is eosinophils from guinea pigs. In words: Whole-cell cAMP elevation in guinea pig eosinophils. The format is cell-based. The conditions noted are these: vs RS 14203 and (R)-rolipram; data not presented.
For series [17], the system named is HL-60 cells. The series can be described thus: Whole-cell cAMP elevation in HL-60 cells. In kind it is cell-based. The conditions noted are these: vs RS 14203 and (R)-rolipram; data not presented.
In series [18] the test system is human neutrophils. In words: Whole-cell cAMP elevation in human neutrophils. The format is cell-based. Particulars: vs RS 14203 and (R)-rolipram; data not presented.
The test system of series [19] is U937 cells. In words: Whole-cell cAMP elevation in U937 cells. The format is cell-based, human. Particulars: vs RS 14203 and (R)-rolipram; data not presented.
For series [20], the system named is PDE IVA enzyme and various deletion mutants. Particulars: cited from earlier work.
Series [21] addresses T2, FLAG PDE IVA.
Description: Each point represents the mean of 3 separate experiments performed in duplicate±SEM. […] Each point represents the average of 3 separate experiments.
CHO-K1 cells stably expressing epitope FLAG PDE IV constructs were lysed by sonication for 10 secs at a power setting of 50% (Braunsonic Model 2000) in an ice cold solution containing 50 mM Tris, pH 7.5; 1 mM EDTA; protease inhibitor cocktail (Boehringer, Montreal, QUE). The soluble and particulate fractions of the cell were obtained by centrifuging the sonicate for 90 min at 100,000×g at 40° C. Twenty-five ml. […] The affinity matrix was washed with column buffer until all unbound protein was eluted from the column as determined with a UV-2 flow cell. Bound material was eluted with column buffer containing 0.5 mg/ml. FLAG peptide at a flow rate of 2 ml/min.
(§4) The filters were quickly washed with an ice-cold solution of 50 mM Tris; pH 7.5.
The target of series [22] is rhPDE IVa (Homo sapiens, UniProt P27815, M723I).
Sequence of rhPDE IVa (P27815 whole entry M723I): as above
Description: Shown is the saturable binding to the soluble rhPDE IVa enzyme with increasing concentrations of ligand from 0.2 to 100 nM (panal A).
as §4
Series [23] concerns HSA. The series can be described thus: [3H](R)-rolipram binding to HSA. Details: species or system human. The conditions noted are these: presence or absence of 150 mM KCl.
Description: as §3

T2 sequence (P27815 whole entry M723I): as above

In the case of `COc1ccc(C2CNC(=O)C2)cc1OC1CCCC1` (racemic) [rolipram], in [1], the “saturable high-affinity rolipram binding” value is recorded as “no detectable saturable high-affinity rolipram binding”. The “inhibitory kinetics with respect to substrate” value in series [2] is given as “simple competitive inhibitor”. Besides, the “concentrations inhibiting cAMP PDE activity” value in [3] was “micromolar concentrations”. Also, in series [4], the nausea in patients result is given as “profound episodes of nausea in patients” and the therapeutic window entry is “extremely narrow therapeutic window”. The “difference between measured Kd (binding) and IC50 (enzymatic)” value in series [5] was more than 1000 fold. Also, the “sensitivity of truncated PDE IVa to inhibition” value in series [6] (truncated, catalytically active enzyme) is listed as “low sensitivity to inhibition by rolipram”. In addition, in [7], the “saturable high-affinity binding to truncated enzyme” value is recorded as “fails to bind rolipram with high-affinity”. In addition, the “inhibitory kinetics with respect to full-length PDE Iva” value in series [8] (rolipram (racemic)) is listed as “Mixed inhibitory kinetics”. Also, the “rolipram-sensitivity of constitutive phosphodiesterase activity” value in series [9] is “did not exhibit any rolipram-sensitivity”.

Broadly, the EC50 is the concentration giving half of the maximal effect. Take `COc1ccc([C@@H]2CNC(=O)C2)cc1OC1CCCC1` [(R)-rolipram]: in [10], the “additional increase in enzyme sensitivity to (R)-rolipram” value was found to be 3 fold. Further, in [11] (CHO-K1), the EC50 was 168 nM. Besides, the “effect of assay conditions on sensitivity of FLAG PDE IVAmet330 to (R)-rolipram” value in series [12] is recorded as “unaffected”. Besides, in series [13] (CHO-K1, with 10 μM PGI2 (b116 prints 10 FM), read-out: EC50 for elevating cellular cAMP), the EC50 was 486 nM. In addition, in [14], the “effect of assay solution osmolality on rolipram sensitivity of the enzyme” value is listed as “no effect upon the rolipram sensitivity of the enzyme” and the “inhibition of cAMP hydrolytic activity in the stable clones” value is “completely inhibitable”. Further, in series [15], the “concentration required for inhibition of catalytic portion” value was “at least a micromolar concentration”. Besides, the “Hill co-effecient for inhibition of HPDE IV catalytic activity” value in [8] was 0.43.

Broadly, the IC50 is the concentration that gives 50% inhibition. Regarding `COc1ccc([C@H](Cc2ccncc2)c2ccccc2)cc1OC1CCCC1` [CDP 840], the EC50 in series [11] was 319 nM. Besides, the “discrimination between high- and low-affinity states of the enzyme” value in series [6] (truncated vs full-length enzyme) is reported as “do not discriminate between the two affinity states of the enzyme”. Besides, the “relative potency / response in elevating whole-cell cAMP” value in [13] (with PGI2) was “least potent of the compounds tested, and a maximal "plateau" response was not obtained”. Further, the “relative potency at elevating whole-cell cAMP” value in series [16] is “consistently less potent than RS 14203 and (R)-rolipram”; in series [17], “consistently less potent than RS 14203 and (R)-rolipram”; in series [18], “consistently less potent than RS 14203 and (R)-rolipram”; in series [19] it was “consistently less potent than RS 14203 and (R)-rolipram”. Also, in [14], the “effect of increased salt / ionic strength on inhibitory potency (IC50)” value is given as “not substantially affected; also recorded: not appreciably affected; also recorded: not affected by an increase of ionic strength; also recorded: not affected by the increases in assay buffer ionic strength”. For the same compound, in series [14], the “relative potency against recombinant full-length PDE IVa enzyme” value was “as potent as RS 14203 and more potent than (R)-rolipram”. The IC50 in [14] (read-out: IC50 for inhibition of soluble PDE IVa activity) came to 9 nM.

For the compound `COc1ccc(C(=O)Nc2c(Cl)cncc2Cl)cc1OC1CCCC1` [RP 73401], the “class of binding sites” value in series [20] is “single class of high-affinity binding sites”.

Consider `COc1ccc([C@@H]2CNC(=O)C2)cc1OC1CCCC1` [[^3 H](R)-rolipram], for which the Stochiometry was 0.02 (0.0) fmol [^3 H](R)-Rolipram/fmol P in [21] (0 mM KCl), 0.10 (0.03) fmol [^3 H](R)-Rolipram/fmol P in series [21] (0 mM KCl + 3 mg/ml HSA), 0.04 (0.01) fmol [^3 H](R)-Rolipram/fmol P in series [21] (150 mM KCl) and 0.15 (0.03) fmol [^3 H](R)-Rolipram/fmol P in series [21] (150 mM KCl + 3 mg/ml HSA). Besides, the Bmax is 150 (47) fmol [^3 H](R)-rolipram in series [21] (0 mM KCl + 3 mg/ml HSA); 150±47 fmol/1.6 pmol enzyme in [21] (3 mg/ml HSA); 63 (16) fmol [^3 H](R)-rolipram in [21] (150 mM KCl); 63±16 fmol/1.6 pmol enzyme in series [21] (150 mM KCl (text)); 240 (37) fmol [^3 H](R)-rolipram in series [21] (150 mM KCl + 3 mg/ml HSA); 240 fmol/1.6 pmol purified enzyme in [21] (150 mM KCl + 3 mg/ml HSA (text)). Moreover, the Bmax in series [22] (150 mM KCl) worked out at 0.47 pmol/20 μg prot; in series [22] (absence of added KCl) it was 0.16 pmol/20 μg prot. Moreover, the “increase in Bmax” value in series [21] (3 mg/ml HSA) is listed as 5 fold. The “Hill coefficient of binding” value in series [22] (300 mM KCl) was determined as 2. Also, the “specific binding to HSA” value in series [23] was “No specific binding”. In addition, in [7], the “saturable high-affinity binding to truncated enzyme” value is “did not exhibit any saturable binding; also recorded: does not display any saturable high-affinity [^3 H](R)-rolipram binding”.
